Entries after “also recorded” stand apart in the source; their conditions may differ. Like-named read-outs stand apart in the source and are kept apart here. Each block holds one molecule with its values, some of them ahead of it.
Tests used:
[1] = target: T1, PPARγ LBD (Homo sapiens, UniProt P37231); test: Isothermal titration calorimetry; assay type: binding
T1 construct: PPARγ LBD was expressed as N-terminal His-tagged proteins using a pET28 vector; His tag (N, cleaved yes); made in house; host or cells: E. coli BL21 DE3
T1 sequence (P37231 238-503 limits assumed): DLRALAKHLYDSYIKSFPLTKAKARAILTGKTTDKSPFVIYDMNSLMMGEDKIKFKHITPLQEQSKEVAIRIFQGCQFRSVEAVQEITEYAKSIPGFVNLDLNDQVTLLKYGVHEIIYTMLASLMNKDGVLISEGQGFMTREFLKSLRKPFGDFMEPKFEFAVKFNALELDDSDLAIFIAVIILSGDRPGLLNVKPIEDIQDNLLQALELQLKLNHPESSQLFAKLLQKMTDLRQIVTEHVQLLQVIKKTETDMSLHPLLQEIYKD
Protocol: ITC experiments were performed at 22 °C by using a ITC200 microcalorimeter (MicroCal, Inc., Northampton, MA, USA). […] DMSO was added to the protein solution at the same percentage of the ligand solution (2%) for the experiment with SAP19. The protein solution (50 μM) was placed in the sample cell, and ligand solution (500 μM) was loaded into the syringe injector (PPARγ 40 μM and the ligand 400 μM for the experiment with 13-HODE) . The titrations involved 19 injections of 2 μL each at 150 s intervals. A reference titration of ligand into buffer was used to correct for heats of dilution. Thermodynamic data was processed with Origin 7.0 software (MicroCal). Fitting the isotherms with one-site binding model yealded the values of the association constant (Ka).

[2] = system: HepG2 cells; test: MTT assay for cell viability; assay type: cell-based, human; conditions: for IC50: read-out: IC50 (concentration that reduces the cell viability by 50%)
Protocol: Human hepatocellular liver carcinoma cell line HepG2 (Interlab Cell Line Collection, Genoa, Italy) was cultured in Minimum Essential Medium (MEM) containing 10% heat-inactivated fetal bovine serum, 100 U·mL^−1 of penicillin G, and 100 μg·mL^−1 of streptomycin sulfate at 37 °C in a humidified atmosphere of 5% CO2.
Cell viability was measured using the MTT assay. HepG2 cells were seeded at a density of 1·10^5 cells/well into 96-well flat bottom culture plates containing test compounds (ranging from 200 nM to 100 μM final concentration), in a final volume of 100 μL. […] Control wells lacked inhibitor. After 24 h of incubation at 37 °C in a 5% CO2 atmosphere, 3-(4,5-dimethylthiazole-2-yl)-2,5-diphenyltetrazolium bromide (MTT, 5 mg/mL stock solution) was added to a final concentration of 0.5 mg/mL. To control for background absorbance, six wells of cells were lysed by adding Triton X-100 (0.1% v/v final concentration) immediately prior to the addition of MTT reagent. After incubation under the same conditions for further 3–4 h, the culture medium was removed, the insoluble product dissolved by the addition of 100 μL of solvent (50% DMSO, 50% EtOH v/v), and the absorbance of the well was measured at 570 nm using a PERKIN–ELMER Victor V^3 plate reader. Cell growth inhibition was then calculated using the following Equation,
where V% is the percentage of cell viability, A is the absorbance of treated cultures, Ab is the absorbance of background control, and Ac is the absorbance of control cultures.

[3] = target: T1, PPARγ LBD; test: Surface plasmon resonance, PPARγ receptor/saponin or sapogenin interactions; assay type: binding; conditions: for Kd: koff/kon; for affinity to the nuclear receptor: in words
Protocol: PPARγ LBD was expressed as N-terminal His-tagged proteins using a pET28 vector and then purified as previously described[40]. Briefly, freshly transformed E. coli BL21 DE3 were grown in LB medium with 30 μg of kanamycin/mL at 310 K to an OD of 0.6. […] Cells were harvested and resuspended in a 20 mL/liter culture of Buffer A (20 mM Tris, 150 mM NaCl, 10% glycerol, 1 mM Tris 2-carboxyethylphosphine HCl (TCEP), pH 8) in the presence of protease inhibitors (Complete Mini EDTA-free; Roche Applied Science). Cells were sonicated, and the soluble fraction was isolated by centrifugation (35,000 × g for 45 min). The supernatant was loaded onto a Ni^2+ -nitrilotriacetic acid column (GE Healthcare) and eluted with a gradient of imidazole 0–300 mM in Buffer A (batch method). The pure protein was identified by SDS PAGE. The protein was then dialyzed over buffer A to remove imidazole, and it was cleaved with thrombin protease (GE Healthcare) (10 units/mg) at room temperature for 2 h. The digested mixture was reloaded onto a Ni^2+ -nitriloacetic acid column to remove His tag and the undigested protein. The flow-through was loaded onto a Q-Sepharose HP column (GE Healthcare) and eluted with a gradient of NaCl 0–500 mM in Buffer B (20 mM Tris, 10% glycerol, 1 mM TCEP, pH 8) with a BioLogic DuoFlow FPLC system (Bio-Rad Laboratories, Italy). Finally, the protein was purified by gel-filtration chromatography on a HiLoad Superdex 75 column (GE Healthcare) and eluted with Buffer C (20 mM Tris, 1 mM TCEP, 0.5 mM EDTA, pH 8). The protein was then concentrated at 8 mg/mL using Amicon centrifugal concentrators with a 10 kDa cutoff membrane (Millipore, USA). Part of the protein was used for SPR experiments.
Surface plasmon resonance analyses were performed by using Pioneer AE optical biosensor equipped with COOH5 chips (SensiQ). PPARγ surfaces were prepared by using standard amine-coupling procedures[45] and HBS (Hepes-buffered saline: 20 mM Hepes, 150 mM sodium chloride, 0.005% P20, pH 7.4) as the running buffer. Flow cells were activated for 7 min by injecting 140 μL of 50 mM N-hydroxysuccinimide (NHS):200 mM ethyl-3(3-dimethylamino) propyl carbodiimide (EDC). Fifty μL of a 0.25 mg/mL PPARγ solution (in 10 mM sodium acetate, pH 5.0) were injected for 5 min at 10 μL/min on channels 1 and 3 (channel 2 was used as ref. [3], for a duplicate experiment), followed by a 70-μL injection of ethanolamine to block any remaining activated groups on the surface. […] The screening of the analytes (saponins and sapogenins) was performed using HBS without P20, with 1 mM DTT and 2% DMSO. To collect detailed kinetic data the OneStep[46][47][48] protocol was used, injecting the analytes at a flow rate of 50 μL/min and at the concentration of 100 μM (50 μM for 14 and 15) over the three channels at 20 °C (association phase of 180 s). Five buffer blanks were injected for double referencing . […] A DMSO calibration plot was constructed (buffer sample containing 1–3% (vol/vol) DMSO) to correct for bulk refractive index shifts[49]. Data were collected at a rate of 20 Hz. All sensorgrams were processed by using double referencing[50]. First, the responses from the reference surface (channel 2) were subtracted from the binding responses collected over the reaction surfaces to correct for bulk refractive index changes.

[4] = system: PPARγ; design: method as in PMID 25487878; conditions: cited from earlier work
[5] = target: T2, PPARγ (Homo sapiens, UniProt P37231); test: Displacement experiments against rosiglitazone (antagonist behavior, transactivation); assay type: cell-based
T2 construct: expressed in transfected cells; host or cells: HepG2
T2 sequence (P37231 238-503 limits assumed): T1 sequence (P37231 238-503 limits assumed)
Protocol: The antagonist behavior of the above compounds was also evaluated in displacement experiments against rosiglitazone.
For transactivation assays, 1·10^5 cells per well were seeded in a 96-well plate and transfected after 24 h with K2 Transfection System (Biontex Laboratories GmbH), according to the manufacturer’s protocol using 0.20 μg/well of DNA. Cells were transfected with expression plasmids encoding the fusion protein Gal4-PPARα-LBD or Gal4-PPARγ-LBD, pGal5TKpGL3, and pCMVβgal to normalize the transfection efficacy. 24 h after transfection, medium was replaced with fresh complete growth medium supplemented with test compounds (ranging from 200 nM to 100 μM), reference compounds Wy-14,643 (10 μM) and rosiglitazone (2 μM), or DMSO 0.1%. After further 24 h of incubation cells were lysed and luciferase activity in cell extracts was determined by a luminometer (VICTOR^3 V Multilabel Plate Reader, PerkinElmer, Monza, Italy) and normalized for β-galactosidase activity. Fold induction activity was calculated and plotted using GraphPad Prism5 software.

[6] = ITC fit, OneSites model, Supplementary Fig. S3
[7] = SPR, 20 °C, 1:1 model, for 2:1 model fits the first value (high affinity site), error in parentheses

- K (association constant) [1, 6]: 106000 M⁻¹
- ΔH [1, 6]: -2.206 kcal/mol
- ΔS [1, 6]: 15.5 cal/mol/deg
- ΔH ([1]; ITC, 22 °C): -2.21 kcal/mol
- −TΔS ([1]; ITC, 22 °C): -4.56 kcal/mol
- Kd ([1]; ITC, 22 °C, one-site model): 9.4 µM
Molecule: CCCCC[C@H](O)/C=C/C=C\CCCCCCCC(=O)O [13-(S)-HODE]

Molecule: C[C@@H]1O[C@@H](O[C@H]2[C@H](O[C@H]3[C@H](O[C@H]4CC[C@@]5(C)[C@@H](CC[C@]6(C)[C@@H]5CC=C5[C@@H]7CC(C)(C)C[C@@H](O)[C@]7(C)CC[C@]56C)[C@@]4(C)CO)O[C@H](C(=O)O)[C@@H](O)[C@@H]3O)O[C@H](CO)[C@H](O)[C@@H]2O)[C@H](O)[C@H](O)[C@H]1O [SAP17, soyasaponin I]
- cytotoxicity ([2]; HepG2, concentrations up to 100 μM): did not show cytotoxicity; also recorded: did not show any cytotoxic activity
- IC50 ([2]; Homo sapiens, HepG2, 24 h): > 100 µM
- Koff [3]: 1.68 s⁻¹
- Kd ([3]; Kd, SPR, 1:1 model, for 2:1 model fits the first value (high affinity site)): 32.5 µM

Molecule: CC1(C)CC[C@]2(C(=O)O)CC[C@]3(C)C(=CC[C@@H]4[C@@]5(C)CC[C@H](O)[C@@](C)(CO)[C@@H]5CC[C@]43C)[C@@H]2C1 [SAP20, hederagenin]
- affinity to the nuclear receptor ([3]; SPR): didn’t show affinity
- Kd ([3]; SPR, 1:1 model, for 2:1 model fits the first value (high affinity site), read-out: Kd): > 1000 µM

- affinity to the nuclear receptor ([3]; SPR): didn’t show affinity
Molecule: CC1(C)CC[C@]2(C(=O)O)CC[C@]3(C)C(=CCC4[C@@]5(C)C[C@H](O)[C@H](O)[C@@](C)(CO)C5CC[C@]43C)C2C1 (stereo partly drawn) [SAP21, bayogenin]

- affinity to the nuclear receptor ([3]; SPR): didn’t show affinity
Molecule: CC1(C)C[C@@H](O)[C@]2(C)CC[C@]3(C)C(=CC[C@@H]4[C@@]5(C)CC[C@H](O)[C@](C)(CO)[C@@H]5CC[C@]43C)[C@@H]2C1 [SAP24, soyasapogenol B]

Molecule: CC(C)=CCC[C@](C)(O)[C@H]1CC[C@]2(C)[C@@H]1[C@H](O)C[C@@H]1[C@@]3(C)CC[C@H](O)C(C)(C)[C@@H]3[C@@H](O)C[C@]12C [protopanaxatriol]
- activity towards PPARγ [4]: antagonist activity

Molecule: echinocystic acid [SAP18]
- reduction of the effects of rosiglitazone ([5]; at 5 μM): 40%
- antagonist behavior towards PPARγ ([5]; in words): antagonist activity
- IC50 ([2]; HepG2, MTT, 24 h): 4.1 ± 0.4 µM
- Koff ([3]; SPR, 2:1 molecular interaction model, second value in cell (second site)): 0.715(0.002) s^−1
- Koff [3, 7]: 0.0014 s⁻¹
- Kon [3, 7]: 144.8(0.2) M^−1s^−1

From article PMC4901321, “Screening of saponins and sapogenins from Medicago species as potential PPARγ agonists and X-ray structure of the complex PPARγ/caulophyllogenin” (Scientific Reports, 2016)
